Legend:
[1] = test system: cotton aphid (Aphis gossypii); assay: Test Example 1: foliar spray on cucumber seedlings infested with cotton aphid, controlling value; format: in vivo; conditions: 120 h, spray 10 mL/seedling on cucumber, 5 days after spraying, 25° C.
Text: Controlling value (%)={1−(Cb×Tai)/(Cai×Tb)}×100 wherein the symbols in the formula represent the following meanings. Cb: Number of the test insects in untreated group; Cai: Number of the surviving insects at the time of the investigation in untreated group; Tb: Number of the test insects in treated group; Tai: Number of the surviving insects at the time of the investigation in treated group; Here the “untreated group” represents a group where a similar treatment procedure to that of the treated group except not using each test compound is done.

[2] = test system: housefly (Musca domestica); assay: whole plant or invertebrate; format: in vivo; conditions: 24 h, read-out: mortality of insects
Protocol: A bottom of a plastic cup having a diameter of 5.5 cm is lined with the same size of a filter paper, and each of the diluted solutions (0.7 mL) is added dropwise on the filter paper, and sucrose (30 mg) is homogeneously placed into the plastic cup as a bait.

Compound	pest or weed control at 500 ppm [1] [%]	pest or weed control at 200 ppm [1] [%]	mortality at 500 ppm [2] [%]
CCS(=O)(=O)c1cc(N)ccc1-c1ccc(OCC(F)(F)C(F)(F)F)cn1 [Present compound 53]	≥ 90	–	–
CCSc1cc(C#N)ccc1-c1ccc(OCC(F)(F)C(F)(F)F)cn1 [Present compound 59]	≥ 90	≥ 90	–
CCS(=O)(=O)c1cc(C#N)ccc1-c1ccc(OCC(F)(F)C(F)(F)F)cn1 [Present compound 60]	≥ 90	≥ 90	–
CCS(=O)(=O)c1cc(C(=O)O)ccc1-c1ccc(OCC(F)(F)C(F)(F)F)cn1 [Present compound 61]	≥ 90	≥ 90	–
CCS(=O)(=O)c1ccc(N)cc1-c1ccc(OCC(F)(F)C(F)(F)F)cn1 [Present compound 62]	≥ 90	≥ 90	–
CCS(=O)(=O)c1cc(NC(=O)C2CC2)ccc1-c1ccc(OCC(F)(F)C(F)(F)F)cn1 [Present compound 63]	≥ 90	–	–
CCS(=O)(=O)c1cc(-n2cncn2)ccc1-c1ccc(OCC(F)(F)C(F)(F)F)cn1 [Present compound 67]	≥ 90	≥ 90	≥ 100
CCS(=O)(=O)c1cc(-c2ccccn2)ccc1-c1ccc(OCC(F)(F)C(F)(F)F)cn1 [Present compound 68]	≥ 90	≥ 90	–

Source: US10273210B2, “Pyridine compound” (Sumitomo Chemical Company, Limited, priority 2015, dated 2019)
